Measurements reported in US11319315B2, “Cyclohexyl acid triazole azoles as LPA antagonists” (BRISTOL-MYERS SQUIBB COMPANY, priority 2017, dated 2022).
Structures can show the parent of a compound that is named as a salt. Where two headings read alike, the source gives them in different places.

Molecular target: T1, human LPA1 (Homo sapiens, UniProt Q92633)
T1 construct: expressed in transfected cells; host or cells: Chinese hamster ovary (CHO) cells
Assay: LPA1 functional antagonist assay (LPA-induced calcium flux in CHO cells overexpressing human LPA1)
Type: cell-based
Conditions: read-out: hLPA1 IC50
Outline: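 CHO cells overexpressing human LPA1, dye-loaded 30 min at 37 °C, then given compound (0.08 nM–5 μM final, 0.5% DMSO) in HBSS/20 mM HEPES/0.1% fatty-acid-free BSA for 20 min at room temperature before 10 nM LPA. IC50 as 50% inhibition of LPA-evoked calcium flux, 4-parameter logistic fit.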

[1] = inhibition of calcium flux induced by 10 nM LPA, CHO cells overexpressing human LPA1

T1 sequence (Q92633 whole entry): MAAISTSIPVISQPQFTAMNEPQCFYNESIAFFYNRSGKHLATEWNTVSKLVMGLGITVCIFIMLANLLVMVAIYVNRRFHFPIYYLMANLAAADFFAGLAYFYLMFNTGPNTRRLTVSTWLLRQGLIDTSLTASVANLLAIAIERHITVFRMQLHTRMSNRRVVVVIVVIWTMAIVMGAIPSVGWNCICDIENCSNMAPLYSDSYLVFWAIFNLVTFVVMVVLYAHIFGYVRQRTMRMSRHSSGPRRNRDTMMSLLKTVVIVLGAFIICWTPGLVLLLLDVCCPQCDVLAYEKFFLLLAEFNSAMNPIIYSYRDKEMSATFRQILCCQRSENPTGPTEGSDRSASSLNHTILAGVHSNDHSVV

| SMILES | IC50 [1] [nM] | IC50 [nM] |
| --- | --- | --- |
| Cc1nc(-c2nnn(C)c2CNc2noc(COC3CCC3)n2)ccc1O[C@H]1CCC[C@H](C(=O)O)C1 [Example 283, (1S,3S)-3-((6-(5-(((5-(cyclobutoxymethyl)-1,2,4-oxadiazol-3-yl)amino)methyl)-1-methyl-1H-1,2,3-triazol-4-yl)-2-methylpyridin-3-yl)oxy)cyclo-hexane-1-carboxylic acid, TFA salt] | 19 |  |
| COC(C)c1nc(NCc2c(-c3ccc(O[C@H]4CCC[C@H](C(=O)O)C4)c(C)n3)nnn2C)no1 (mixture of isomers) [Example 223, (1S,3S)-3-((6-(5-(((5-(1-methoxy-ethyl)-1,2,4-oxadiazol-3-yl)amino)methyl)-1-methyl-1H-1,2,3-triazol-4-yl)-2-methylpyridin-3-yl)oxy)cyclo-hexane-1-carboxylic acid] | 466 |  |
| CCCO[C@@H](C)c1nc(NCc2c(-c3ccc(O[C@H]4CCC[C@H](C(=O)O)C4)c(C)n3)nnn2C)no1 [Example 220] | 160 |  |
| Cc1nc(-c2nnn(C)c2COc2nc(C3CC3)ns2)ccc1O[C@H]1CCC[C@H](C(=O)O)C1 [Example 116, (1S,3S)-3-((6-(5-(((3-cyclopropyl-1,2,4-thiadiazol-5-yl)oxy)methyl)-1-methyl-1H-1,2,3-triazol-4-yl)-2-methylpyridin-3-yl)oxy)cyclohexane-1-carboxylic acid] | 405 |  |
| COc1ccc(-n2nnc(NCc3c(-c4ccc(O[C@H]5CCC[C@@H](C(=O)O)C5)c(C)n4)nnn3C)n2)cc1 [Example 379, (1R,3S)-3-((6-(5-(((2-(4-methoxy-phenyl)-2H-tetrazol-5-yl)amino)methyl)-1-methyl-1H-1,2,3-triazol-4-yl)-2-methylpyridin-3-yl)oxy)cyclohexane-1-carboxylic acid] |  | 2080 |
| Cc1nc(-c2nnn(C)c2Cc2nnn(CC(C)C)n2)ccc1O[C@H]1CCC[C@H](C(=O)O)C1 [Example 373, (1S,3S)-3-((6-(5-((2-isobutyl-2H-tetrazol-5-yl)methyl)-1-methyl-1H-1,2,3-triazol-4-yl)-2-methylpyridin-3-yl)oxy)cyclohexane-1-carboxylic acid] |  | 136 |
| CCCCc1nnc(Cc2c(-c3ccc(O[C@H]4CCC[C@H](C(=O)O)C4)c(C)n3)nnn2C)o1 [Example 74] | 227 |  |
| CC[C@@H](OC)c1nc(NCc2c(-c3ccc(O[C@H]4CCC[C@H](C(=O)O)C4)c(C)n3)nnn2C)no1 (single isomer, unassigned) [Example 215] | 154 |  |
| Cc1nc(-c2nnn(C)c2CNc2ncn(CC3CC3)n2)ccc1O[C@H]1CCC[C@H](C(=O)O)C1 [Example 152] | 179 |  |
| CCCCn1nnc(NCc2c(-c3ccc(O[C@H]4CCC[C@H](C(=O)O)C4)c(C)n3)nnn2C)n1 [Example 382, (1S,3S)-3-((6-(5-(((2-butyl-2H-tetrazol-5-yl)amino)methyl)-1-methyl-1H-1,2,3-triazol-4-yl)-2-methylpyridin-3-yl)oxy)cyclo-hexane-1-carboxylic acid] |  | 521 |
| Cc1nc(-c2nnn(C)c2CNc2nc(CC3CC3)no2)ccc1O[C@H]1CCC[C@H](C(=O)O)C1 [Example 64] | 105 |  |
| Cc1nc(-c2nnn(C)c2COc2nnnn2CC(C)C)ccc1O[C@H]1CCC[C@H](C(=O)O)C1 [Example 144] | 94 |  |
| Cc1nc(-c2nnn(C)c2Cn2nnc(OCC3CC4CCC3C4)n2)ccc1O[C@H]1CCC[C@H](C(=O)O)C1 (stereo partly drawn) [Example 405, (1S,3S)-3-{[6-(5-{[5-({bicyclo[2.2.1]heptan-2-yl}methoxy)-2H-1,2,3,4-tetrazol-2-yl]methyl}-1-methyl-1H-1,2,3-triazol-4-yl)-2-methylpyridin-3-yl]oxy}cyclohexane-1-carboxylic acid] |  | 47 |
| COC[C@@H](C)Oc1nnn(Cc2c(-c3ccc(O[C@H]4CCC[C@H](C(=O)O)C4)c(C)n3)nnn2C)n1 [Example 403, (1S,3S)-3-[(6-{5-[(5-{[(2R)-1-methoxypropan-2-yl]oxyl}-2H-1,2,3,4-tetrazol-2-yl)methyl]-1-methyl-1H-1,2,3-triazol-4-yl}-2-methylpyridin-3-yl)oxy]cyclo-hexane-1-carboxylic acid] |  | 250 |
| CCCCc1nnnn1Cc1c(-c2ccc(O[C@H]3CCC[C@H](C(=O)O)C3)c(C)n2)nnn1C [Example 112] | 176 |  |
| Cc1nc(-c2nnn(C)c2CNc2nc(C3CCC3)no2)ccc1O[C@H]1CCC[C@H](C(=O)O)C1 [Example 44, (1S,3S)-3-((6-(5-(((3-Cyclobutyl-1,2,4-oxadiazol-5-yl)amino)methyl)-1-methyl-1H-1,2,3-triazol-4-yl)-2-methylpyridin-3-yl)oxy)cyclohexane-1-carboxylic acid, 2 TFA salt] | 105 |  |
| Cc1c(O[C@H]2CCC[C@H](C(=O)O)C2)ccc(-c2nnn(C)c2Cn2nnc(OCC3CC3)n2)[n+]1[O-] [Example 349, 3-{[(1S,3S)-3-carboxycyclohexyl]oxy}-6-(5-{[5-(cyclopropyl-methoxy)-2H-1,2,3,4-tetrazol-2-yl]methyl}-1-methyl-1H-1,2,3-triazol-4-yl)-2-methylpyridin-1-ium-1-olate] | 304 |  |
| Cc1nc(-c2nnn(C)c2CNc2ncn(CC(C)C)n2)ccc1O[C@H]1CCC[C@H](C(=O)O)C1 [Example 25, (1 S,3 S)-3-((6-(5-(((1-isobutyl-1H-1,2,4-triazol-3-yl)amino)methyl)-1-methyl-1H-1,2,3-triazol-4-yl)-2-methylpyridin-3-yl)oxy)cyclohexane-1-carboxylic acid] | 125 |  |
| Cc1nc(-c2nnn(C)c2Cn2cc(C3CC3)nn2)ccc1O[C@H]1CCC[C@H](C(=O)O)C1 [Example 267, (1S,3S)-3-((6-(5-((4-cyclopropyl-1H-1,2,3-triazol-1-yl)methyl)-1-methyl-1H-1,2,3-triazol-4-yl)-2-methylpyridin-3-yl)oxy)cyclohexane-1-carboxylic acid] | 2210 |  |

More lines, now with the values ahead:

| IC50 [1] [nM] | IC50 [nM] | SMILES |
| --- | --- | --- |
| 20 |  | Cc1nc(-c2nnn(C)c2CNc2noc(C3CCC3)n2)ccc1O[C@H]1CCC[C@H](C(=O)O)C1 [Example 175] |
| 12 |  | COc1cccc(Cc2nnn(Cc3c(-c4ccc(O[C@H]5CCC[C@H](C(=O)O)C5)c(C)n4)nnn3C)n2)c1 [Example 314, (1S,3S)-3-({6-[5-({5-[(3-methoxy-phenyl)methyl]-2H-1,2,3,4-tetrazol-2-yl}methyl)-1-methyl-1H-1,2,3-triazol-4-yl]-2-methylpyridin-3-yl}oxy)cyclohexane-1-carboxylic acid] |
| 54 |  | Cn1nnc(-c2ccc(O[C@H]3CCC[C@H](C(=O)O)C3)c(C#N)n2)c1Cn1cc(CC2CCCCC2)nn1 [Example 94] |
| 26 |  | Cc1nc(-c2nnn(C)c2CNc2nc(-c3ccccc3)no2)ccc1O[C@H]1CCC[C@H](C(=O)O)C1 [Example 61] |
| 9 |  | CCCCc1cn(Cc2c(-c3ccc(O[C@H]4CCC[C@H](C(=O)O)C4)c(CC)n3)nnn2C)nn1 [Example 96] |
| 29 |  | Cc1nc(-c2nnn(C)c2CNc2nc(CC3CCC3)no2)ccc1O[C@H]1CCC[C@H](C(=O)O)C1 [Example 156] |
| 24 |  | CCCOCc1nc(NCc2c(-c3ccc(O[C@H]4CCC[C@H](C(=O)O)C4)c(C)n3)nnn2C)no1 [Example 284, (1S,3S)-3-((2-methyl-6-(1-methyl-5-(((5-(propoxymethyl)-1,2,4-oxadi-azol-3-yl)amino)methyl)-1H-1,2,3-triazol-4-yl)pyridin-3-yl)oxy)cyclo-hexane-1-carboxylic acid, TFA salt] |
| 18 |  | CCC(C)Cc1nc(NCc2c(-c3ccc(O[C@H]4CCC[C@H](C(=O)O)C4)c(C)n3)nnn2C)no1 (some centres unmarked) [Example 170] |
| 15 |  | Cc1nc(-c2nnn(C)c2CNc2noc(CCC(C)C)n2)ccc1O[C@H]1CCC[C@H](C(=O)O)C1 [Example 69] |
| 4 |  | Cc1nc(-c2nnn(C)c2CNc2noc(CC3CCC3)n2)ccc1O[C@H]1CCC[C@H](C(=O)O)C1 [Example 72] |
| 8 |  | Cc1nc(-c2nnn(C)c2Cc2noc(Cc3ccccc3)n2)ccc1O[C@H]1CCC[C@H](C(=O)O)C1 [Example 237, (1S,3S)-3-((6-(5-((5-benzyl-1,2,4-oxadiazol-3-yl)methyl)-1-methyl-1H-1,2,3-triazol-4-yl)-2-methylpyridin-3-yl)oxy)cyclohexane-1-carboxylic acid] |
| 71 |  | Cc1nc(-c2nnn(C)c2CNc2nc(C(C)C)ns2)ccc1O[C@H]1CCC[C@H](C(=O)O)C1 [Example 10] |
| 11.5 |  | C=C1CC(c2nc(NCc3c(-c4ccc(O[C@H]5CCC[C@H](C(=O)O)C5)c(C)n4)nnn3C)no2)C1 [Example 203] |
| 61 |  | CCCc1cnn(Cc2c(-c3ccc(O[C@H]4CCC[C@H](C(=O)O)C4)c(C)n3)nnn2C)n1 [Example 270, (1S,3S)-3-((2-methyl-6-(1-methyl-5-((4-propyl-2H-1,2,3-triazol-2-yl)methyl)-1H-1,2,3-triazol-4-yl)pyridin-3-yl)oxy)cyclohexane-1-carboxylic acid] |
| 12 |  | CCCC(C)c1nc(NCc2c(-c3ccc(O[C@H]4CCC[C@H](C(=O)O)C4)c(C)n3)nnn2C)no1 (some centres unmarked) [Example 171] |
| 32 |  | Cc1nc(-c2nnn(C)c2CNc2noc(CCC(C)F)n2)ccc1O[C@H]1CCC[C@H](C(=O)O)C1 (some centres unmarked) [Example 201] |
| 45 |  | Cc1nc(-c2nnn(C)c2CNc2ncn(-c3cc(F)cc(F)c3)n2)ccc1O[C@H]1CCC[C@H](C(=O)O)C1 [Example 211, (1 S,3 S)-3-((6-(5-(((1-(3,5-difluorophenyl)-1H-1,2,4-triazol-3-yl)amino)methyl)-1-methyl-1H-1,2,3-triazol-4-yl)-2-methylpyridin-3-yl)oxy)cyclohexane-1-carboxylic acid] |
| 59 |  | Cc1nc(-c2nnn(C)c2CNc2nnc(C3CCC3)o2)ccc1O[C@H]1CCC[C@H](C(=O)O)C1 [Example 51] |
| 52 |  | Cc1nc(-c2nnn(C)c2CNc2noc([C@H]3C[C@](C)(F)C3)n2)ccc1O[C@H]1CCC[C@H](C(=O)O)C1 [Example 192] |
